# In paper PMC11121450, “Evaluation of the Inhibitory Potential of Synthetic Peptides Homologous to CDR3 Regions of a Monoclonal Antibody against Bothropic Venom Serine Proteases” (International Journal of Molecular Sciences, 2024):
# Residues, ends and D or L forms follow the SMILES beside them. No end group written: not given here.
# Tests used:
# [1] = tested on: B. jararaca and B. atrox venoms; assay type: in vitro ADME, Bothrops jararaca; Bothrops atrox; conditions: incubation with B. jararaca and B. atrox venoms (0.1 µg of both venoms per table footnote; 90 ng and 20 ng per method), 50 µM peptide, 4 h, 37 °C, 100 mM Tris HCl, 20 mM NaCl, pH 7.4; RP-HPLC C-18, UV 214 nm; relative to β-chain of insulin
# Experimental: To verify the stability of the synthetic peptides, they were incubated with both venoms, and tests were performed using reverse-phase liquid chromatography on a C-18 column. […] As a positive control, the β-chain of insulin was used, which is known to be a substrate for the SVSPs and SVMPs of bothropic venoms.
# With the aim of verifying the possible hydrolysis of peptides by the studied venoms, the samples were prepared in 100 mM Tris-HCl, 20 mM NaCl, pH 7.4, final volume 100 µL, using 50 µM of each synthetic peptide, incubating them separately with the venoms of B. jararaca (90 ng) and B. atrox (20 ng) for 4 h at 37 °C, the same concentrations used in the enzymatic assays. A solution containing the β-chain of insulin (50 µM) was used as a positive control since it is a described substrate for SVSP from both venoms. The conditions for the HPLC (Shimadzu Prominence) analysis used 0.1% trifluoroacetic acid (TFA) in water (solvent A), and acetonitrile (ACN) and solvent A (9:1) as solvent B. The analyses occurred at a flow rate of 1 mL/min using a C-18 column (Shim-pack VP-ODS4.6 x 150 mm) and a gradient of 20–60% solvent B for 20 min. In all cases, 50 µL of each sample was injected and the absorbance was monitored at 214 nm.
# [2] = target: elastase-1 (EC 3.4.21.36) (Sus scrofa, UniProt P00772); experiment: Inhibition of elastase-1, Abz-FRSSRQ-EDDnp substrate; assay type: biochemical; conditions: peptide 20 µM, 300 ng elastase-1, Abz-FRSSRQ-EDDnp 5 µM, Tris-HCl 50 mM, pH 8, 37 °C, quadruplicate
# Experimental: Figure 8 Inhibitory activity assay against human thrombin (panel A), trypsin (panel B), and elastase-1 (panel C). The experiments were performed in a fluorimeter (Hidex 425-301, Turku, Finland), with readings adjusted for excitation and emission at 320 and 420 nm using Abz-FRSSRQ-EDDnp as a substrate. Assays were performed in quadruplicate, in Tris-HCl 50 mM, pH 8.0 (for trypsin and elastase-1 assays), and 100 mM Tris-HCl, 20 mM NaCl, pH 7.4, for human thrombin at 37 °C, using 1.7 ng/µL of trypsin, 300 ng/µL of human thrombin, and 300 ng of elastase-1. […]
# To verify the selective inhibition of the SVTLE by the peptides, it was necessary to perform experiments with other serine proteases of physiological relevance. For this, the possible inhibition of elastase-1 (EC 3.4.21.36), trypsin (EC 3.4.21.4), and human thrombin (EC 3.4.21.5) was analyzed. […] The activities were assessed in 50 mM Tris-HCl, pH 8, for trypsin; Tris-HCl 50 mM, NaCl 50 mM, pH 8, for elastase-1; and 100 mM Tris-HCl, 20 mM NaCl, pH 7.4, for human thrombin (final volume of 100 µL), using 96-well plates (Corning) and the substrate Abz-FRSSRQ-EDDnp (5 µM). […] Assays were performed on a Hidex fluorimeter (425-301 Hidex, Turku, Finland), with the excitation and emission of fluorescence fixed at 320 and 420 nm, respectively. […] The readings occurred over 15 min at 1 min intervals. […]
# human thrombin = human thrombin (Homo sapiens, UniProt P00734); experiment: Inhibition of human thrombin, Abz-FRSSRQ-EDDnp substrate; assay type: biochemical; conditions: for Ki: Dixon plot, three peptide concentrations including zero, thrombin 300 ng/µL, Abz-FRSSRQ-EDDnp substrate, read-out: inhibition constant (Ki) against human thrombin; for reduction of hydrolytic activity of thrombin: peptide 100 µM, 300 ng human thrombin, Abz-FRSSRQ-EDDnp 5 µM, 100 mM Tris-HCl, 20 mM NaCl, pH 7.4, 37 °C, quadruplicate
# Experimental: Figure 8 Inhibitory activity assay against human thrombin (panel A), trypsin (panel B), and elastase-1 (panel C). The experiments were performed in a fluorimeter (Hidex 425-301, Turku, Finland), with readings adjusted for excitation and emission at 320 and 420 nm using Abz-FRSSRQ-EDDnp as a substrate. Assays were performed in quadruplicate, in Tris-HCl 50 mM, pH 8.0 (for trypsin and elastase-1 assays), and 100 mM Tris-HCl, 20 mM NaCl, pH 7.4, for human thrombin at 37 °C, using 1.7 ng/µL of trypsin, 300 ng/µL of human thrombin, and 300 ng of elastase-1. […] Panel (B): For these assays, the peptides were used at 100 µM, and CDR3 A and CDR3 E inhibited the substrate hydrolysis by thrombin by 34% and 100%, respectively. […] (****) p < 0.0001.
# With the obtained velocities, curves were plotted on the Dixon plot (1/V versus [I]) (Figure 9).
# Lines indicate a competitive mechanism of action. Kis of 61.77 µM (CDR3 A) and 55.75 (CDR3 E) were obtained. For the construction of the graph, the software GraphPad Prism 8 was used.
# To verify the selective inhibition of the SVTLE by the peptides, it was necessary to perform experiments with other serine proteases of physiological relevance. For this, the possible inhibition of elastase-1 (EC 3.4.21.36), trypsin (EC 3.4.21.4), and human thrombin (EC 3.4.21.5) was analyzed. The evaluation of enzyme activities was performed as described above. The activities were assessed in 50 mM Tris-HCl, pH 8, for trypsin; Tris-HCl 50 mM, NaCl 50 mM, pH 8, for elastase-1; and 100 mM Tris-HCl, 20 mM NaCl, pH 7.4, for human thrombin (final volume of 100 µL), using 96-well plates (Corning) and the substrate Abz-FRSSRQ-EDDnp (5 µM). All reactions occurred at 37 °C using 1.7 ng of trypsin, 300 ng of human thrombin, and 300 ng of elastase-1. Assays were performed on a Hidex fluorimeter (425-301 Hidex, Turku, Finland), with the excitation and emission of fluorescence fixed at 320 and 420 nm, respectively. The trypsin and elastase-1 assays were performed using 20 µM of each peptide, and the human thrombin assays were performed using 100 µM. The readings occurred over 15 min at 1 min intervals. The experiments were performed in quadruplicate.
# Sequence of elastase-1 (EC 3.4.21.36) (P00772 27-266): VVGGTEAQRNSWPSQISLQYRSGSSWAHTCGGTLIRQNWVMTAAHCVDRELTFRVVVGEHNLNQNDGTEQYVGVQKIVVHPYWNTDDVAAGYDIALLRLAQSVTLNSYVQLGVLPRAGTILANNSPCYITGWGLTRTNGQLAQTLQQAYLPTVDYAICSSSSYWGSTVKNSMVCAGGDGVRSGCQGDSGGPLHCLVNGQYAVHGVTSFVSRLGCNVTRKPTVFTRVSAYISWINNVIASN
Molecule,Relative Hydrolysis Ratio (%) [1],reduction of substrate hydrolysis by elastase-1 [2],Ki (human thrombin),reduction of hydrolytic activity of thrombin (human thrombin)
CKQSYNLRT [CDR3 C],<0.01%,22%,–,–
CC(C)C[C@H](NC(=O)[C@H](CC(N)=O)NC(=O)[C@H](Cc1ccc(O)cc1)NC(=O)[C@H](CO)NC(=O)[C@H](CCC(N)=O)NC(=O)[C@H](CCCCN)NC(=O)[C@H](CS)NC(=O)CNC(=O)CNC(=O)[C@@H]1CCCN1C(=O)CNC(=O)CNC(=O)[C@H](Cc1ccc(O)cc1)NC(=O)[C@H](CC(=O)O)NC(=O)[C@H](Cc1ccccc1)NC(=O)[C@H](Cc1ccc(O)cc1)NC(=O)[C@H](Cc1ccc(O)cc1)NC(=O)CNC(=O)[C@H](CC(=O)O)NC(=O)[C@H](Cc1c[nH]c2ccccc12)NC(=O)[C@H](CC(=O)O)NC(=O)[C@H](CCCNC(=N)N)NC(=O)[C@H](CCCCN)NC(=O)[C@@H](N)CS)C(=O)N[C@@H](CCCNC(=N)N)C(=O)N[C@H](C(=O)O)[C@@H](C)O [CDR3 E] (H-CKRDWDGYYFDYGGPGGCKQSYNLRT-OH),<0.01%,–,55.7 µM,100%
CC(C)C[C@H](NC(=O)[C@H](CC(N)=O)NC(=O)[C@H](Cc1ccc(O)cc1)NC(=O)[C@H](CO)NC(=O)[C@H](CCC(N)=O)NC(=O)[C@H](CCCCN)NC(=O)[C@H](CS)NC(=O)CNC(=O)[C@@H]1CCCN1C(=O)CNC(=O)CNC(=O)[C@H](Cc1ccc(O)cc1)NC(=O)[C@H](CC(=O)O)NC(=O)[C@H](Cc1ccccc1)NC(=O)[C@H](Cc1ccc(O)cc1)NC(=O)[C@H](Cc1ccc(O)cc1)NC(=O)CNC(=O)[C@H](CC(=O)O)NC(=O)[C@H](Cc1c[nH]c2ccccc12)NC(=O)[C@H](CC(=O)O)NC(=O)[C@H](CCCNC(=N)N)NC(=O)[C@H](CCCCN)NC(=O)[C@@H](N)CS)C(=O)N[C@@H](CCCNC(=N)N)C(=O)N[C@H](C(=O)O)[C@@H](C)O [CDR3 D] (H-CKRDWDGYYFDYGGPGCKQSYNLRT-OH),<0.01%,–,–,–
CKRDWDGYYFDY [CDR3 A],<0.01%,–,61.8 µM,34%
